Data as given in patent US20220306587A1, “COMPOUNDS AND USE THEREOF FOR THE TREATMENT OF INFECTIOUS DISEASES AND CANCER” (AC BIOSCIENCE SA, priority 2019, published 2022).
Each block holds one compound with its values, some of them ahead of it.

Columns and labels:
[1] = target: T1, recombinant human Pyridoxal kinase (PDXK) (Homo sapiens, UniProt O00764); assay: In vitro phosphorylation by recombinant human pyridoxal kinase (ADP formation, ADPglo luminescence); format: biochemical; conditions: 200 μM compound, 10 μg/ml rhPDXK, 1 mM ATP, 1 hour at 37° C.; FIG. 2
T1 sequence (O00764 1-312): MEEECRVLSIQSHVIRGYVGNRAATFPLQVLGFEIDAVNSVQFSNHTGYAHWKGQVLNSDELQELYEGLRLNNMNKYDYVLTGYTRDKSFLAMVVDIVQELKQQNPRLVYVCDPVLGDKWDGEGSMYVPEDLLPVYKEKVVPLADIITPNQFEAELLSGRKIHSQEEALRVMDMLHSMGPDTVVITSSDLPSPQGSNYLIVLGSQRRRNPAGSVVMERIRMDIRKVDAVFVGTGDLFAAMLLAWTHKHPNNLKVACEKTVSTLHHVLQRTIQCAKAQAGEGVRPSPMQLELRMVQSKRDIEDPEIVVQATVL
Experimental: ACB1906, A6770, 4-DOP (200 μM) and pyridoxal HCL (1 mM) were incubated with 10 μg/ml rhPDXK for 1 hour at 37° C. in the presence of 1 mM ATP containing—10 mM HEPES buffer with 0.05% Triton X-100, 0.01% Plurogenic F127, 25 μM Na3VO4 and 250 μM MgCl2. ADP formation was measured using the luminescence-based ADPglo kit from Promega. Statistical significance determined by Anova. *denotes p<0.05.
ACB1906's ability to be phosphorylated by recombinant human Pyridoxal kinase (PDXK) in vitro was compared to the structurally similar known imidazole S1PL inhibitor A6770, the PDXK and S1PL non-specific inhibitor 4-deoxypyridoxine (4-DOP) and the natural pyridoxal ligand. […] Increased phosphorylation of thiazole compounds confers an advantage in therapeutic applications as this would be a limiting step for its ability to effect a therapeutically relevant modulation in S1P levels.

[2] = target: T1, recombinant human Pyridoxal kinase (PDXK); conditions: already reported; cited from earlier work
[3] = target: T2, S1P lyase (Mus musculus, UniProt Q8R0X7); conditions: administered to mice; cited from earlier work
T2 construct: host or cells: mice (in vivo)
T2 sequence (Q8R0X7 1-568): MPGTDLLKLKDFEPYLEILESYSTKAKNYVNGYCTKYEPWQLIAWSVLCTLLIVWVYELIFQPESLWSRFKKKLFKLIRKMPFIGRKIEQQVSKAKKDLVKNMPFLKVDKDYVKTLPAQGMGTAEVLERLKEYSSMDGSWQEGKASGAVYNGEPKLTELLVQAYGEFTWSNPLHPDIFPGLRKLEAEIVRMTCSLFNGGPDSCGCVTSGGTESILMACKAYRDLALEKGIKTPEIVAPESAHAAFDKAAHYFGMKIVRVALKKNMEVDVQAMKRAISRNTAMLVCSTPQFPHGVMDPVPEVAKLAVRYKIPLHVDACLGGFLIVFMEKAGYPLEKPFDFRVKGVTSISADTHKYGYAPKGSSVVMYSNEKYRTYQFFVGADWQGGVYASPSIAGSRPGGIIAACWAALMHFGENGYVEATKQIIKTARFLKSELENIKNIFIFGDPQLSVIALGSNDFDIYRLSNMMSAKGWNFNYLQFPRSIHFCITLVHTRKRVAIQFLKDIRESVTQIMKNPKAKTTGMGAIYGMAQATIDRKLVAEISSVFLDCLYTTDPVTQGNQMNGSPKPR

ability to be phosphorylated (ADP formation) in comparison to A6770 [1]: ~2 fold
SMILES: CC(=O)c1nc(CO)cs1 [Compound 6]

SMILES: CC(=O)c1nc(CO)c[nH]1 [Compound A6770, 1-(4-(Hydroxymethyl)-1H-imidazol-2-yl)ethan-1-one]
phosphorylation by PDXK to A6770-P [2]: reported to phosphorylate

SMILES: CC(=O)c1nc([C@@H](O)[C@H](O)[C@H](O)CO)c[nH]1 [THI, 1-(4-((1R,2S,3R)-1,2,3,4-Tetrahydroxybutyl)-1H-imidazol-2-yl)ethan-1-one]
S1P lyase activity [3]: inhibits S1P lyase activity
